Test results: US5650395A, “Treatment of pulmonary hypertension” (priority 1995, dated 1997)
Values belong to the compound of their own block, whether it stands above or below them. Where a SMILES comes first, the peptide text is derived from it. Where no end group is shown, it is not given here. [ ]: non-standard residue; d: D form. dPhe(F5) = N[C@H](Cc1c(F)c(F)c(F)c(F)c1F)C(=O)O

Columns and labels:
[1] = target: T1, GRP receptor (Rattus norvegicus, UniProt P52500); assay: Calcium mobilization assay in AR42J cells (Fura-2AM); assay type: cell-based; details: for increase of intracellular calcium concentration: peptide alone at 10 nM, AR42J cells
T1 construct: endogenous in cells; host or cells: Rat AR42J cells
T1 sequence (P52500 whole entry): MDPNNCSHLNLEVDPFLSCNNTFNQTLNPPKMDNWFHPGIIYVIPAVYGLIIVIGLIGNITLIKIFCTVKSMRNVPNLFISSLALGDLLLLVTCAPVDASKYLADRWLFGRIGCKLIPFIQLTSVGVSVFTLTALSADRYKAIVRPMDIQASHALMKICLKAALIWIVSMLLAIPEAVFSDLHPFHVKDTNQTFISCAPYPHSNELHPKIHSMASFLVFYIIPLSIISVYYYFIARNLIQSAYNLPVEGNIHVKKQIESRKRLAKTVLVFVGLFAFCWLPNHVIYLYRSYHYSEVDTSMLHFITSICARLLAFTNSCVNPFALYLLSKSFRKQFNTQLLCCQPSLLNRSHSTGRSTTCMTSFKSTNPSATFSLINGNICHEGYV
Method: A working example follows:
Rat AR42J cells were cultured in DMEM medium containing 10% fetal bovine serum (Sigma, St. Louis, Mo.) in an atmosphere of 5% CO2 and 95% air at 37° C. After 5 days of culture, the cells were harvested by incubating in a 0.3% EDTA/phosphate buffered saline solution (Sigma, St. Louis, Mo.) (25° C.) and washed twice by centrifugation. The washed cells were resuspended in Hank's-buffered saline solution (HBSS) (Sigma, St. Louis, Mo.) for loading of the fluorescent Ca^2+ indicator Fura-2AM (Molecular Probes, Eugene, Oreg.). Cell suspensions of approximately 10^6 cells/ml were incubated with 2 μM Fura-2AM for 30 min at 25° C. Unloaded Fura-2AM was removed by centrifugation (twice) in HBSS, and the final cell suspensions were transferred to a spectrofluorometer (Hitachi F-2000, Tokyo, Japan) equipped with a magnetic stirring mechanism and a temperature-regulated cuvette holder. After equilibration to 37° C., a test peptide or a known GRP […] was added for measurement of Ca^2+ mobilization. The excitation and emission wavelengths were 340 and 510 nm, respectively.

[2] = test system: patient with pulmonary hypertension; assay: Infusion in a patient with pulmonary hypertension secondary to liver disease (Swan-Ganz catheterization); assay type: in vivo, human
Text: BIM-26226, a bombesin antagonist, was further administered to a patient to test its efficacy in lowering the pulmonary systolic or diastolic pressure.
The patient, complained of increasing shortness of breath under moderate exertion. […] A clinical diagnosis of pulmonary hypertension, secondary to liver disease, was made.
An 8 G french introducer (Arrow, Reading, Pa.) was inserted into the right internal jugular vein of the patient. A 7 G french triple lumen-balloon inflation lumen Swan-Ganz line (Abbot, N. Chicago, Ill.) was inserted through the introducer. The catheter was first floated through the right atrium and ventricle into the pulmonary artery, and was then connected to a Hewlett Packard monitor (Model 66s, M1166A) using modules M1006A, M1020A, 1029A, 1008A, and M1166A. Measurements of central venous pressure, pulmonary artery pressure, mean pulmonary pressure, cardiac index, cardiac output, and pulmonary vascular resistance were analyzed directly. A 20 G arterial line was inserted into the left radial artery (Arrow, Reading, Pa.) for measurement of systemic blood pressure and blood gas partial pressure estimations.
The study was conducted in two phases. The placebo phase, which lasted 24 hours, consisted of an infusion of normal saline (0.9% NaCl) at a constant rate of 50 ml/hr. The active phase consisted of an infusion of BIM-26226 in increasing concentrations. BIM-26226 was supplied as lyophilized powder. BIM-26226 was reconstituted in water, and then diluted in normal saline initially to give an infusion concentration of 5 μg/kg/hr. The concentration was increased every four hours to a maximum of 200 mcg/kg/hr. BIM-26226 was administered through the jugular line at a constant infusion rate of 50 ml/hr. Observations as detailed above were recorded at least hourly, though more often if indicated. In addition, blood samples were taken every four hours for biochemical profile, hematological screening, and both peripheral and central GRP levels. The GRP level samples were collected on ice, centrifuged, and snap-frozen. Analysis on the GRP levels was performed using an established radioimmunoassay.
FIG. 1 summarizes the study. The pulmonary systolic and diastolic pressures are compared between both the infusion of the saline placebo (Plac sys and Plac dias) and BIM-26226 (BIM sys and BIM dias). The doses of BIM-26226 administered and the administration scheme are shown at the top of FIG. 1, e.g., 5 μg/kg/hr four hours initially.

[3] = target: T1, GRP receptor; assay: GRP receptor binding assay ([125I-Tyr4]bombesin, AR42J cell membranes); details: 30 min, 4° C., read-out: IC50 (concentration required to inhibit 50% of specific binding of [125I-Tyr4]bombesin)
Method: Membranes for the GRP receptor binding assay were obtained by homogenizing cultured AR42J cells (ATCC No. CRL-1492; American Type Culture Collection, Rockville, Md.) using a Polytron homogenizer (Brinkman Instruments, Westchester, N.Y.) at a setting of 6 for 15 sec. in an ice-cold 50 mM Tris-HCl buffer (Buffer A; Sigma, St. Louis, Mo.). See Singh, et al., 258 Am. J. Physiol. […] (1990). The homogenate was centrifuged twice at 39,000×g (10 min.) with an intermediate resuspension in fresh Buffer A. The final pellets were resuspended in Buffer A containing 0.1 mg/ml bacitracin and 0.1% bovine serum albumin (Buffer B) and held on ice for the receptor binding assay. Both bacitracin and bovine serum albumin were purchased from Sigma, St. Louis, Mo. Aliquots (0.4 ml) of the cell suspension were incubated with 0.05 ml of [^[…] ] bombesin (~2200 Ci/mmol; New England Nuclear, Boston, Mass.) in Buffer B and 0.05 ml of the test peptide (e.g., BIM-26226) at various concentrations (e.g., 0M to 10^-6 M) in Buffer B. […] Louis, Mo.). The filters were then washed three times with 5 ml aliquots of ice-cold Buffer A. Specific binding was defined as the total [^[…] ]bombesin bound in the presence of the test peptide minus that bound in the presence of 1 μM unlabeled GRP. […] BIM-26226, thus, has a high affinity for the GRP receptor. In other words, it is a GRP ligand.

[4] = test system: pulmonary haemodynamics; details: wide range of experimental conditions; cited from earlier work
[5] = test system: isolated pulmonary arteries; details: cited from earlier work

increase of intracellular calcium concentration [1]: no effect
increase of intracellular calcium concentration by bombesin (10 nM) after pretreatment with antagonist ([1]; pretreated with BIM-26226 (10 nM)): 300 nM
reduction of bombesin-induced calcium increase versus bombesin alone ([1]; pretreated with BIM-26226 (10 nM), bombesin 10 nM): 205 nM
blood biochemistry ([2]; upon infusion): no changes
cardiac index ([2]; upon infusion): no changes
cardiac output ([2]; upon infusion): no changes
peripheral vascular resistance ([2]; upon infusion): no changes
right atrial pressure ([2]; upon infusion): no changes
IC50 [3]: 500 pM
Compound: COC(=O)[C@H](CC(C)C)NC(=O)[C@H](Cc1c[nH]cn1)NC(=O)[C@@H](C)NC(=O)[C@@H](NC(=O)[C@H](C)NC(=O)[C@H](Cc1c[nH]c2ccccc12)NC(=O)[C@H](CCC(N)=O)NC(=O)[C@H](N)Cc1c(F)c(F)c(F)c(F)c1F)C(C)C [BIM-26226, H-D-F5 -Phe-Gln-TrP-Ala-Val-D-Ala-His-Leu-O-CH3] (H-[dPhe(F5)]QWAV[dA]HL-OMe)
adverse events ([2]; active phase of infusion): Other than a mild urticarial response during the early active phase, the patient had no adverse events
pulmonary diastolic pressure ([2]; infusion rate of 200 μg/kg/hr, from 35 mm Hg): 42 mm Hg
pulmonary systolic pressure ([2]; infusion rate of 200 μg/kg/hr, from 90 mm Hg): 55 mm Hg
infusion rate at which pulmonary systolic pressure started to decrease ([2]; intravenous infusion, increasing doses every four hours): 25 µg/kg/h
pulmonary systolic pressure upon rechallenge ([2]; rechallenge after discontinuation): again dramatically decreased
systemic blood pressure ([2]; upon infusion): no changes
period over which pulmonary pressure rose upon discontinuation of drug administration ([2]; within two half-lives of the drug): 15 min

Compound: CSCC[C@H](NC(=O)[C@H](CC(C)C)NC(=O)[C@H](Cc1cnc[nH]1)NC(=O)CNC(=O)[C@@H](NC(=O)[C@H](C)NC(=O)[C@H](Cc1c[nH]c2ccccc12)NC(=O)[C@H](CCC(N)=O)NC(=O)[C@H](CC(N)=O)NC(=O)CNC(=O)[C@H](CC(C)C)NC(=O)[C@H](CCCN=C(N)N)NC(=O)[C@H](CCC(N)=O)NC(=O)[C@@H]1CCC(=O)N1)C(C)C)C(N)=O [Bombesin]
increase of intracellular calcium concentration [1]: 505 nM
in vivo pulmonary haemodynamic effect [4]: neither bombesin nor GRP, under a wide range of experimental conditions, have any demonstrable in vivo pulmonary haemodynamic effect
effect on isolated pulmonary arteries [5]: not to have an effect

Compound: COc1ccc([C@@H]2Sc3ccccc3N(CCN(C)C)C(=O)[C@@H]2OC(C)=O)cc1 [diltiazem, reference compound]
effect on pulmonary pressure (therapeutic trial) ([2]; patient, before the BIM-26226 study): did not lower the pulmonary pressure

Compound: GRP: 27-amino acid peptide first isolated from the porcine gut (APVSVGGGTVLAKMYPRGNHWAVGHLM; ends and bridges not checked; UniProt P63153 24-50, looked up)
in vivo pulmonary haemodynamic effect [4]: neither bombesin nor GRP, under a wide range of experimental conditions, have any demonstrable in vivo pulmonary haemodynamic effect
